According to US11440932B2, “Surfactant compounds-clips for extraction and stabilization in solution of membrane proteins” (CENTRE NATIONAL DE LA RECHERCHE SCIENTIFIQUE, priority 2017, dated 2022):

These compounds were tested against T1, BmrA (Bacillus subtilis, UniProt O06967) (assay: ATPase activity of BmrA after addition of detergents). Conditions: at extracting concentrations; relative to protein without compound.
T1 construct: His tag; made in house; host or cells: E. coli C41(DE3)
T1 sequence (O06967 whole entry): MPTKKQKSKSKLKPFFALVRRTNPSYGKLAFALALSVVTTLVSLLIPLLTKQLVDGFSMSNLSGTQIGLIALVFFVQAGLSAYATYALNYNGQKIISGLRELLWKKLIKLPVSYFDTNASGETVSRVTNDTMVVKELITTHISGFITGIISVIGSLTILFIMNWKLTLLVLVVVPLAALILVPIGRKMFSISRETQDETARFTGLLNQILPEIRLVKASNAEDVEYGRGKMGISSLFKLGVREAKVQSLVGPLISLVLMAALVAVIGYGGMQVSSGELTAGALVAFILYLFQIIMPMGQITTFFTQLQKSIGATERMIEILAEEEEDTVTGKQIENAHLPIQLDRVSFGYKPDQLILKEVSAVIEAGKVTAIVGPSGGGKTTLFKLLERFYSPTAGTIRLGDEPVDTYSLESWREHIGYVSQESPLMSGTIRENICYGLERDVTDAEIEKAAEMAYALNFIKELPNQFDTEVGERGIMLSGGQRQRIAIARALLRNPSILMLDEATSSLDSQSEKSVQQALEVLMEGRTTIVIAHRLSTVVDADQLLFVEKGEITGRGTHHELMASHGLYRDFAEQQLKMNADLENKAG
Type: biochemical, bacterial; produced in E. coli C41 DE3
Description: FIG. 7 depicts the effect of the detergents of the invention on the functionality of BmrA (ATPase activity, %). The membrane fraction enriched in BmrA (˜25%) diluted to 2 g/l has the compounds added to it at the concentrations (mM) indicated (panel A, from top to bottom: 3.7e 10.7 mM, 3.7e 8.6 mM, 3.7e 6.4 mM, 3.7e 4.3 mM, 3.7e 2.2 mM, 3.7e 1.1 mM, 3.7d 4 mM, 3.7d 3 mM, 3.7d 2 mM, 3.7d 1 mM, 3.7d 0.8 mM, 3.7d 0.6 mM, 3.7d 0.05 mM, 3.7d 0.03 mM, 3.7d 0.02 mM, 3.7c 13 mM, 3.7c 10.4 mM, 3.7c 10 mM, 3.7b 1.5 mM, 3.7b 0.7 mM, 3.7b 0.5 mM, 2.3gNa2 20.5 mM, 2.3gK2 19.3 mM, 2.3f 21.1 mM, 2.3e 22 mM, 2.3d 23.2 mM, 2.3a 3.2 mM, 1.5a 22 mM, DDM 20 mM, DDM 2 mM, DDM 10 mM, DOM 2 mM, DDM 1 mM, LMNG 10 mM, LMNG 1 mM, LMNG 0.1 mM, LMNG 0.01 mM, FA3 27 mM, FA3 9 mM, FA3 2 mM, FA3 1 mM, TX100 16 mM; panel B from top to bottom: compounds of the invention 5.3d 3.2 mM, 5.3c 3.3 mM, 5.3b 11.7 mM, 5.3b 2.9 mM, 5.3a 3 mM, 4.6c 14.6 mM, 4.6b 15.2 mM, 4.5c 18.6 mM, 4.5b 19.6 mM, 3.9a 8 mM, 3.9a 0.51 mM, 3.9a 0.31 mM, 3.9a 0.11 mM, 3.7l 12.01 mM, 3.7l 6.01 mM, 3.7l 3 mM, 3.7l 1 mM, 3.7k 10 mM, 3.7k 3 mM, 3.7j 3 mM, 3.7j 2 mM, 3.7j 1 mM, 3.7j 0.6 mM, 3.7j 0.03 mM, 3.7j 0.02 mM, 3.7j 1 mM, 3.7i 0.3 mM, 3.7h 3 mM, 3.7h 2 mM, 3.7h 1 mM, 3.7h 0.6 mM, 3.7h 0.58 mM, 3.7h 0.5 mM, 3.7h 0.35 mM, 3.7h 0.1 mM, 3.7h 0.5 mM, 3.7h 0.35 mM, 3.7h 0.1 mM, 3.7h 0.05 mM, 3.7h 0.03 mM, 3.7h 0.02 mM, 3.7g 12.5 mM, 3.7g 9 mM, 3.7g 7.5 mM, 3.7g 5 mM, 3.7g 3 mM, 3.7g 1 mM, 3.7f 3.2 mM, 3.7f 2 mM, 3.7f 1 mM, 3.7f 0.061 mM, 3.7f 0.031 mM, 3.7f 0.015 mM). After incubation for 2 h at 4° C., the ATPase activity is measured. The solutions are subsequently centrifuged for 1 h at 4° C., 100 000×g, and the supernatants deposited on 10% SDS-PAGE (cf. FIG. 8). The gray and black histograms correspond to the concentrations at which BmrA is partially (gray) or entirely (black) extracted, according to these SDS-PAGE. The ATPase activity is in % relative to that of the protein without compound, 0.7 μmol ATP hydrolyzed/min/mg of proteins.
The molecules of the invention which extract BmrA in the previous example were tested at different sub-solubilizing and solubilizing concentrations, to evaluate their impact on the native and functional state of the protein. The latter is monitored by the hydrolysis of ATP which is carried out by the protein during the transport cycle, coupled with translocation of the solute. As reported previously (Matar-Merheb, R. et al. ([11])), the ATPase activity of BmrA is a highly sensitive marker of the state of the protein, the latter being particularly sensitive to the detergents used during the extraction step, where said detergents replace the lipids on contact with the membrane protein.
Procedure. BmrA produced and enriched in the plasma membrane of E. coli C41 DE3 is prepared as described previously (Matar-Merheb, R. et al. ([11])). The membranes are diluted at 2 g/l in a 20 mM Tris-HCl buffer, pH 8.0, 100 mM NaCl, 15% glycerol, with protease inhibitors (Roche) added thereto at an amount of one tablet/100 ml. The mixture (T) is incubated for 2 h at 4° C. and the ATPase activity is measured using the coupled-enzyme system, separating off the vanadate-insensitive activity from the total activity, Centeno, F. et al. Expression of the sarcoplasmic reticulum Ca^2+-ATPase in yeast. FEBS Lett 354, 117-122 (1994) ([25])). The solutions are subsequently centrifuged for 1 h at 4° C. at 100 000×g in order to separate the extracted fraction (supernatant, S) from that which is not extracted (pellet). The supernatants are deposited on 10% SDS-PAGE and stained with Coomassie blue after migration (FIG. 8). DDM, LMNG (Chae, P. S. et al. ([6])), TritonX100 and FA3 (Lee, S. C. et al. (2013) ([9])) are tested as reference detergents. The DDM and LMNG originate from Anatrace, the Triton X100 originates from Sigma-Aldrich and the FA3 from Avanti-Polars.
With `CCCCCCCCCCCC(=O)N[C@@H](COCc1cn(CCO[C@@H]2OC(CO)[C@@H](O)C(O)C2O)nn1)C(=O)N[C@H](CCC(=O)O)C(=O)O` (stereo partly drawn) [Compound 3.7b] the “change of the ATPase activity of BmrA on extraction” value (shortened to “change”) was 1.5 ×. In the case of `CCCCCCCCCCCCCC(=O)N[C@@H](COCc1cn(CCO[C@@H]2OC(CO)[C@@H](O)C(O)C2O)nn1)C(=O)N[C@H](CCC(=O)O)C(=O)O` (stereo partly drawn) [Compound 3.7c], the “change” value is reported as 1.5 ×. In the case of `CCCCCCCCCCCCCC(=O)N[C@@H](COCc1cn(CCO[C@@H]2OC(CO)[C@@H](O[C@H]3OC(CO)[C@@H](O)C(O)C3O)C(O)C2O)nn1)C(=O)N[C@H](CCC(=O)O)C(=O)O` (stereo partly drawn) [Compound 3.7e], the “change” value is reported as 2 ×. For `CCCCCCCCCCCCCC(=O)N[C@@H](COCc1cn(CCOCCOCCOCCOCCOCCOC)nn1)C(=O)N[C@H](CCC(=O)O)C(=O)O` [Compound 3.7g], the “change” value was 1.5 ×. For `CCCCCCCCCCCCC(CCCCCCCCCCCC)C(=O)N[C@@H](COCc1cn(CCO[C@@H]2OC(CO)[C@@H](O)C(O)C2O)nn1)C(=O)N[C@H](CCC(=O)O)C(=O)O` (stereo partly drawn) [Compound 3.7j], the “change” value was “maintaining”. With `CCCCCCCCCCCCCC(=O)N[C@@H](COCc1cn(CCO[C@@H]2OC(CO)[C@@H](O)C(O)C2O)nn1)C(=O)N[C@@H](CCC(=O)O)C(=O)NCC(=O)O` (stereo partly drawn) [Compound 3.7l] the “change” value was “maintaining”.
